Test results reported in patent US20260199564A1, “METHOD OF PREVENTING BLOOD COAGULATION AND DRUG-ELUTING IMPLANT FOR PERCUTANEOUS CORONARY INTERVENTION” (priority 2023, published 2026).

Tests used:
Human platelets = experiment: Platelet aggregation test (anticoagulant test), collagen-treated platelet-rich plasma; type: cell-based; conditions: PRP, 5 μg/ml collagen, CK 0-80 μM
Procedure: • a. A 20 mM CK stock solution is prepared with DMSO and is diluted with 1×PBS to the different working concentrations (0, 62.5, 125, 250, 500, 1000, and 2000 μM) before experiments.
The donator should rest and fast for 12 h and not smoke before blood collection. Medication such as antihistamines, antibiotics, Aspirin, and anti-inflammatory drugs are not allowed to take 10-14 days before tests due to the potential of affecting platelet function.
To ensure the absence of coagulation, the blood sample should be fully mixed with the anticoagulant and stored at 24-27° C. It is recommended to conduct the platelet aggregation test within 30-150 min after blood sample collection.
Slightly invert the blood collection tubes 3-4 times to resuspend the blood cells. Centrifuge the samples at 170×g for 7 min and transfer the supernatants to the new tubes. The samples should be used within 5-10 min after separation; otherwise, the samples should be stored at 4° C. to avoid agglutination. […]
To test the effect of CK on the function of platelet aggregation, different concentrations of CK (0, 2.5, 5, 10, 20, 40, and 80 μM) are added to 0.25 ml PRP. […] OD value is measured with a spectrometer at 650 nm, and the value is converted into an aggregate percentage.
The aggregation percentage of platelet is calculated with the following formula: […]

IL-6 = experiment: LPS-induced IL-6 expression in HUVECs; type: cell-based, human; conditions: 1, 3, 10 μM for 1 h prior to LPS (1 μg/ml) stimulation for 24 h
Procedure: HUVECs were treated for 1 h with ginsenoside CK (1 μM, 3 μM, and 10 μM) prior to LPS (1 μg/ml) stimulation for 24 h (A) IL-6 (B) TNF-αexpression. Values are means±SEM of 3 independent experiments. Statistical significance assessed by one-way ANOVA followed by Scheffe post-hoc test for multiple comparisons (***P<0.01, *P<0.05 vs LPS).
Treatment of HUVECs with LPS (1 μg/ml) increased IL-6 and TNF-αexpression. To determine whether LPS-induced IL-6 and TNF-αexpression was affected by ginsenoside CK, HUVECs were treated for 1 h with ginsenoside CK (1 μM, 3 μM, and 10 μM) prior to LPS (1 μg/ml) stimulation for 24 h.

CC(C)=CCC[C@](C)(O[C@@H]1O[C@H](CO)[C@@H](O)[C@H](O)[C@H]1O)[C@H]1CC[C@]2(C)[C@@H]1[C@H](O)C[C@@H]1[C@@]3(C)CC[C@H](O)C(C)(C)[C@@H]3CC[C@]12C [CK, Ginsenoside compound K]
platelet aggregation level after treating the platelet with CK (Human platelets): decreased
LPS-induced IL-6 expression (IL-6): significantly decreased
